From patent publication US6841362B1, “Melanoma differentiation associated gene-7 promoter and uses thereof” (The Trustees of Columbia University in the City of New York, priority 2000, dated 2005)

Key:
C/EBP-β/LAP = assay: Western blotting of C/EBP-β/LAP protein in whole cell lysates; format: cell-based, human; details: HO-1 cells, 24 h treatment
Experimental: (§1) FIGS. 8A-8C. Protein expression pattern of the transcription factors cJun/AP-1 and C/EBP-β and their ability to transactivat the mda-7 promoter. [FIG. 8A] Whole cell lysates from HO-1 control cells (C) and those treated with IFN-β (I), MEZ (M), IFN-β+MEZ (I+M) or TPA were resolved on a 4-20% SDS-PAGE gel and transblotted onto nitrocellulose filters. Immobilized proteins were then analyzed by Western blotting using commercially available cJun/AP-1 and C/EBP-β specific antibodies. […] Equal protein loading was determined by Coomassie blue staining of a parallel gel. [FIG. 8B] […]
(§2) Electrophoresis and immunoblotting. Equal amounts of whole cell proteins were analyzed by sodium dodecylsulfate-polyacrylamide gel electrophoresis (SDS-PAGE, 4-20% gradient gel; Novex) and electrotransferred onto ECL grade nitrocellulose (Amersham) as described previously (24). […]
(§3) AP-1 and C/EBP families of transcription factors are responsible for mda-7 promoter activation during human melanoma differentiation. […] Western blot analyses of whole cell lysates (equal protein loading was verified by Coomassie blue staining of a parallel gel, data not shown) from uninduced HO1 cells and cultures treated for 24 h with IFN-β, MEZ, IFN-β+MEZ or TPA were analyzed using anti-cJun/AP-1, anti-C/EBP-α or anti-C/EBP-β antibodies. […]

mda-7-ARE-3'-UTR = assay: Luciferase-mda-7-ARE-3'UTR reporter assay; format: cell-based, human; details: HO-1 cells
Excerpt: Posttranscriptional regulation of Luciferase mRNA as a consequence of mda-7-3′ UTR addition at its 3′-end. The Luciferase expression plasmid having SV40 polyadenylation signal sequence was replaced with the 3′-UTR region (approximately 900 bp) of mda-7. […] (FIG. 3A) Mda-7 3′-UTR mediated destabilization of luciferase mRNA was computed as fold induction of luciferase enzyme activity, which is seen only when stable luciferase mRNA, is synthesized. […] (FIG. 3B) Kinetic analysis of luciferase activity (as fold-induction) of the mda-7 promoter-luciferase-ARE-3′-UTR construct as a function of time of treatment with IFN-β+MEZ. Luciferase assays were performed as described by Gopalkrishnan et al. (1999) and briefly in the legend to FIGS. 1A-1B.
To examine the posttranscriptional regulation of mda-7 mRNA specifically during terminal differentiation of human melanoma cells, we constructed a Luciferease-mda-7-ARE-3′UTR plasmid under transcriptional control of either the FL-mda-7 promoter (FIG. 3) or the SV40 large T-antigen promoter. These plasmids were co-transfected into HO-1 cells and treated with differentiation inducers.

HO-1 cells = details: cited from earlier work
mda-7 gene = assay: Nuclear run-on assay of mda-7 transcription; format: cell-based, human; details: HO-1 cells, 24 h treatment, versus uninduced control
Experimental: (FIG. 2A) Nuclear run-on assays using nuclei isolated from Control or 24 h after treatment with IFN-β, MEZ or IFN-β+MEZ, the same concentrations as indicated in FIG. 1. GAPDH was used as an internal control. In vitro transcription assays were performed as previously described (Jiang et al., 1993). […] GAPDH was used as an internal loading control.
Transcription of the housekeeping gene, GAPDH served as an internal control.

FL-mda-7 promoter = FL-mda-7 promoter luciferase reporter assay, transient transfection; format: cell-based, human; details: HO-1 and MeWo cells, 48 hr treatment, relative to uninduced; IFN-β 2000 units/ml, MEZ 10 ng/ml
Experimental: The effect of differentiation inducer drug treatment on full length mda-7 promoter activity. Fold induction of the FL-mda-7 promoter relative to the pGL3-Basic plasmid with or without differentiation inducer drug treatment in HO-1 (FIG. 1A) or MeWo (FIG. 1B) human melanoma cells. Luciferase assays were performed as previously described (Gopalkrishnan et al., 1999). In brief, the promoter-containing plasmids were transiently transfected into the different cell types using Superfect^R (Qiagen) according to the manufacturer's protocol. The cells were treated with differentiation inducers (IFN-β, 2000 units/ml; MEZ, 10 ng/ml; or IFN-β+MEZ, 2000 units/ml+10 ng/ml) for 48 h following transfection and assayed for luciferase activity using the Luc+Assat Kit (Promega). The SV40-p-Galactosidase plasmid was co-transfected with the luciferase constructs and used to normalize for variations in transfection efficiencies between experiments. […]
The presumptive promoter fragment was assayed for promoter activity using a heterologous gene reporter system (pGL3-Basic, luciferase assay system, Promega). […] The transfection efficiency was determined by cotransfection with RSV-β-galactosidase (Tropics β-Gal assay kit) and the relative luciferase activity was computed after correction for variations in transfection efficiencies.

mda-7 mRNA [1] = assay: Northern blotting of mda-7 message; format: cell-based, human; details: HO-1 cells, 24 h treatment
Excerpt: FIGS. 5A-5B. Message and protein expression analyses of mda-7 during melanoma terminal differentiation. (FIG. 5A) Northern blotting analysis of mda-7 message expression. Total RNA was isolated from HO-1 cells that were uninduced (C) or treated with IFN-β (I), MEZ (M) or IFN-β+MEZ (I+M) and analyzed by Northern blotting. 28S RNA was used as a loading control. Mda-7 message was detected using a random primed [^32P]-labeled mda-7 cDNA probe (18). (FIG. 5B) Indirect immunofluorescence visualization of MDA-7 protein subcellular localization. Both uninduced HO-i cells (Control; A and S) and terminally differentiated (48 h IFN-β+MEZ treated; C and D) were immuno-labeled using anti-MDA-7 specific monoclonal antibody. Anti-mouse secondary antibodies conjugated with Rhodamine enabled visualization of MDA-7 protein localization (A and C) and the DNA specific dye, DAPI was used to stain nuclei (B and D). With the exception of a cell undergoing mitosis no other cells reveal MDA-7 staining in control cultures (A and B). Terminally differentiated cells in (C) and (D) show strong punctate MDA-7 staining within the nucleus (See enlargement below (C) and (D) of a single nucleus). The arrow points to the punctate bodies to which MDA-7 localizes in the nucleus and their coincidence with DAPI bright staining regions.
Nucleic acid analysed. […]

mda-7 mRNA [2] = assay: RT-PCR followed by Southern blotting of mda-7 mRNA; format: cell-based, human; details: HO-1 cells, compared to IFN-β+MEZ treated samples
Experimental: (FIG. 2B) Mda-7 message expression detected by Northern blotting and RT-PCR followed by Southern blotting. Total RNA from control (FIG. 2C) HO-1 cells and cells treated with IFN-β (I), MEZ (M) or IFN-β+MEZ (I+M) were analyzed by Northern blotting or RT-PCR/Southern using radiolabeled mda-7 cDNA as a probe as previously described (Jiang et al., 1993, 1995a; Kang et al., 1998a). GAPDH was used as an internal loading control.
To determine the possible presence of trace amounts of mda-7 mRNA in response to differentiation inducer treatment (IFN-β) and in the absence of treatment, a more sensitive method of message detection was employed, i.e., RT-PCR followed by Southern blotting.
Nucleic acid analysed. Total cytoplasmic RNA was prepared by the guanidinium-HCL extraction method followed by Northern blotting or RT-PCR analysis using previously published protocols (12, 18, 22). For Northern blots, 15 mg of RNA was denatured with glyoxal/DMSO, electrophoresed on 1% agarose gels, transferred to nylon membranes and hybridized with ^32P-dCTP labeled cDNA probes.

cJun/AP-1 = assay: Western blotting of cJun/AP-1 protein in whole cell lysates; format: cell-based, human; details: HO-1 cells, 24 h treatment, compared to uninduced controls
Experimental: as §1, §2, §3

p21/Waf1/Cip1/mda-6 = assay: Effect of cycloheximide on p21/mda-6 message, Northern blotting; format: cell-based, human; details: HO-1 cells, cycloheximide 10 μg/ml for 3 h
Experimental: (§4) FIGS. 4A-4B. Effect of actinomycin D and cycloheximide on th half-life and stability of the mda-7 message. […] Northern blotting analyses were performed on total RNA isolated from control (C)HO-1 or cells treated with IFN-β (I), MEZ (M) or IFN-β+MEZ (I+M), at the same concentrations as in FIG. 1. Twenty-four h after exposure to the inducing agent(s), acitnomycin D (Act.D, 5 μg/ml) was added (+Act.D) for 30 minutes (30′) or one h (1′). Mda-7 expression was detected using a radiolabeled mda-7 cDNA probe as previously described (Jiang et al., 1995a). rRNA visualized by ethidium bromide was used as a loading control. (FIG. 4B) Effect of cycloheximide treatment on mda-7 mRNA stability relative to p21/mda-6 Untreated control (C)HO-1 cells or cells treated for 24 h with IFN-β (I), MEZ (M) or IFN-β+MEZ at the same concentrations as in FIGS. 1A-1B. After 24 h induction, cells were treated with or without cycloheximide (10 μg/ml) for 3 h and total RNA was isolated and analyzed by Northern blotting. Mda-7 expression was detected using a radiolabeled mda-7 cDNA probe (Jiang et al., 1995a). The blot was allowed to decay for 3 months, and then reprobed using a radiolabeled probe against a p21/mda-6 cDNA (Jiang et al., 1995b). rRNA visualized by ethidium bromide was used as a loading control. […]

mda-7 mRNA [3] = assay: Effect of cycloheximide on mda-7 mRNA stability, Northern blotting; format: cell-based, human; details: MEZ treated HO-1 cells, cycloheximide 10 μg/ml for 3 h; lesser extent in control and IFN-β treated samples
Experimental: as §4

mda-7 promoter = mda-7 promoter activity on IL-6 treatment; format: cell-based; details: cells treated with IL-6, unpublished data
Experimental: It appears that C/EBP-B/LAP binding sites at a distance from the TATA element are responsible for mda-7 expression in terminally differentiated human melanoma cells. Another line of evidence supporting the involvement of the C/EBP gene family in melanoma terminal differentiation is apparent from increased levels of C/EBP-B/LAP protein in HO-1 cells as early as 24 h after treatment with IFN-β+MEZ when compared to cells treated with IFN-β, MEZ or TPA. The transcription factor C/EBP is a heat-stable, sequence-specific DNA-binding protein first purified from rat liver nuclei (39). C/EBP regulates gene expression in a variety of tissues including liver, adipose, lung and intestine (40). This transcription factor appears to function exclusively in differentiated and growth-arrested cells (40). […] It is the ratio of LIP/LAP that is important in C/EBP-mediated gene expression. In the case of terminally differentiated HO-1 melanoma cells, we were unable to detect any LIP protein. The present studies provide evidence that the C/EBP gene family members, C/EBP-B/LAP in particular, play a major role during melanoma terminal differentiation. C/EBP-a and -B can both directly induce the mda-7 promoter as shown by ectopic expression analyses. […]

In the case of `C=C(C)[C@@]12O[C@@]3(c4ccccc4)O[C@@H]1[C@@H]1[C@@H]4O[C@]4(CO)[C@@H](O)[C@]4(O)C(=O)C(C)=C[C@H]4[C@@]1(O3)[C@H](C)[C@H]2OC(=O)/C=C/C=C/c1ccccc1` [MEZ, mezerein], the “level of C/EBP-β/LAP protein” value (C/EBP-β/LAP) is listed as “approximately 3 fold”, the “luciferase enzyme activity of Luciferase-mda-7-ARE-3'UTR construct” value (mda-7-ARE-3'-UTR) is listed as “minimal” and the “growth suppression and differentiation” value (HO-1 cells) is listed as “reversible”. For the same compound, the “rate of mda-7 transcription” value (mda-7 gene) was “the same”, the “activity of the FL-mda-7 promoter (luciferase)” value (FL-mda-7 promoter) was “only small changes” and the “mda-7 message by Northern blotting” value (mda-7 mRNA [1]) was “Quantitatively less”. The “mda-7 mRNA by RT-PCR” value (mda-7 mRNA [2]) was “lower levels”.

For `CCCCCCCCCCCCCC(=O)O[C@@H]1[C@@H](C)[C@@]2(O)[C@@H](C=C(CO)C[C@]3(O)C(=O)C(C)=C[C@@H]23)[C@@H]2C(C)(C)[C@]12OC(C)=O` [TPA], the “level of cJun/AP-1 protein” value (cJun/AP-1) was “only marginally increased”.

In the case of `C[C@@H]1C[C@@H]([C@H](O)CC2CC(=O)NC(=O)C2)C(=O)[C@@H](C)C1` [cycloheximide], the p21/mda-6 message accumulation (p21/Waf1/Cip1/mda-6) is reported as “does not show message accumulation” and the “accumulation of mda-7 mRNA” value (mda-7 mRNA [3]) is reported as “visibly increased”.

For IL-6: potent inducer of NF-IL6, the mda-7 promoter activity (mda-7 promoter) was “induced”.
